Consider three compounds from patent publication US20100197753A1, “Benzamides Useful as S1P Receptor Modulators” (Novartis AG, priority 2007, published 2010).

Type in all cases: biochemical
For one assay, the target named is T1, human S1P5 receptor (Homo sapiens, UniProt Q9H228).
T1 construct: expressed in transfected cells; host or cells: CHO-K1 (ATCC CCL 61); RH7777 may also be used
Kind of assay: 35S-GTPγS binding assay (Test 1), S1P5. The settings on record: membrane protein of transfected CHO cells, SPA; for EC50: read-out: EC50, receptor subtype S1P5. The protocol: (§1) Test 1: ^35S-GTPγS Binding Assay
(§2) The S1P receptor modulating properties of an agent of the invention are tested on the human S1P1, S1P2, S1P3, S1P4 and S1P5, respectively, receptor subtypes. The functional receptor activation is assessed by quantifying the compound-induced ^35S-GTPγS binding to membrane protein prepared from transfected heterologous cells stably expressing the appropriate S1P receptor subtype. CHO cells (CHO-K1, Chinese hamster, ATCC no. CCL 61) are used [RH7777 cells (rat Morris hepatoma, ATCC no. CRL 1601) may also be used]. The membrane protein is prepared from wild-type cells and from different cell clones expressing the appropriate S1P receptor subtype. The assay technology used is SPA (scintillation proximity based assay). A DMSO solution of the test compound is serially diluted and added to SPA-bead (Amersham-Pharmacia) immobilised S1P receptor subtype expressing membrane protein (1 to 20 μg/well) in the presence of 50 mM HEPES, 100 mM NaCl, 10 mM MgCl2, 10 μM GDP, 0.1% fat free BSA and 0.2 nM ^35S-GTPγS (1200 Ci/mmol) (pH 7.4). After incubation in 96 well microtiter plates at room temperature for 120 minutes, the unbound ^35S-GTPγS is separated by centrifugation. The luminescence of SPA beads triggered by membrane bound ^35S-GTPγS is quantified with a TOPcount plate reader (Packard). To evaluate the S1P receptor modulation, the stimulation (in %) compared to the baseline is calculated as the binding in the presence of the compound divided by the binding in the absence of a ligand, multiplied by 100. Dose response curves are plotted using a non-linear regression curve fitting program, and the EC50 is defined as the concentration of the compound required to give 50% of its maximum stimulation. Preferably, the EC50 value of an agent of the invention in this test is 10′000 nM or less. The selectivity of the compound towards the S1P receptor subtypes is determined by measuring for each of the different S1P receptor subtypes the level of ^35S-GTPγS binding in the presence of the compound using each of the different membrane proteins.
On the technique in general: GTPγS is a poorly hydrolysed GTP analogue; its binding reports G protein activation.

Another assay has as its target T2, human S1P1 receptor (Homo sapiens, UniProt P21453).
T2 construct: expressed in transfected cells; host or cells: CHO-K1 (ATCC CCL 61); RH7777 may also be used
Description: 35S-GTPγS binding assay (Test 1), S1P1. The settings on record: membrane protein of transfected CHO cells, SPA; for EC50: read-out: EC50, receptor subtype S1P1. The protocol:
as §1, §2

The next assay has as its target T3, human S1P4 receptor (Homo sapiens, UniProt O95977).
T3 construct: expressed in transfected cells; host or cells: CHO-K1 (ATCC CCL 61); RH7777 may also be used
T3 sequence (O95977 1-384): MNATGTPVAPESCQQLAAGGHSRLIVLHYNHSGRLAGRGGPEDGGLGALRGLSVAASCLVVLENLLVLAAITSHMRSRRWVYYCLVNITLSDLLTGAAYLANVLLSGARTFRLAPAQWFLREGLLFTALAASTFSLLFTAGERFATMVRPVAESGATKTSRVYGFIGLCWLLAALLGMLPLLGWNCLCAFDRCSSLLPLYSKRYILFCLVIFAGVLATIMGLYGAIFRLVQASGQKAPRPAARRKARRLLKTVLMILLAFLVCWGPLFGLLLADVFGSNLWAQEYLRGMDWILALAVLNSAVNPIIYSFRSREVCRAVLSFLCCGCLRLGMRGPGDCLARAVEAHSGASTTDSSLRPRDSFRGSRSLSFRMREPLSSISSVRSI
Description: 35S-GTPγS binding assay (Test 1), S1P4. The settings on record: membrane protein of transfected CHO cells, SPA; for EC50: read-out: EC50, receptor subtype S1P4. The procedure: as §1, §2

T2 sequence (P21453 whole entry): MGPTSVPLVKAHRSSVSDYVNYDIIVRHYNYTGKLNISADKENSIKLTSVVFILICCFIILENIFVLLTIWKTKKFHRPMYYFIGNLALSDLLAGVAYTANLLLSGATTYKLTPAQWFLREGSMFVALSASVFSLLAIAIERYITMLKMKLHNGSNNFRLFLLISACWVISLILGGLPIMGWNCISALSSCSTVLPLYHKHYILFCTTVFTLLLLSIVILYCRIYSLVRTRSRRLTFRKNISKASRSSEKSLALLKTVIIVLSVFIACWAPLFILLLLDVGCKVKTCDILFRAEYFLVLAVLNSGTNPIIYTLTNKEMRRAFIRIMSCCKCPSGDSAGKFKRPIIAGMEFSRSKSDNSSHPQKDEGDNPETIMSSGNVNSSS
T1 sequence (Q9H228 whole entry): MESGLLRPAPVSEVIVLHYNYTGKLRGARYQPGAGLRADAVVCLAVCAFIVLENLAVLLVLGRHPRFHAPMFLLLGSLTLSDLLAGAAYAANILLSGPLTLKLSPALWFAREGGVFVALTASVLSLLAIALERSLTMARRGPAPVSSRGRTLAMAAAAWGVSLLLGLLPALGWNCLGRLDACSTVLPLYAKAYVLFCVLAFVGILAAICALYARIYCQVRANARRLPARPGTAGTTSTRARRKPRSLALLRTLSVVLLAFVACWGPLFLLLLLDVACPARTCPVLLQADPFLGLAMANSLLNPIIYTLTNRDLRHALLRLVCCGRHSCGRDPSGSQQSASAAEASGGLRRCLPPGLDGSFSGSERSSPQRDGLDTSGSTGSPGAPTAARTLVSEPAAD

In general, EC50 refers to the concentration giving half of the maximal effect. For `Cc1cc(C)c(Nc2ccc(Cl)cc2C(N)=O)c(C)c1` [Example 37, 5-Chloro-2-(2,4,6-trimethyl-phenylamino)-benzamide], at human S1P5 receptor, the “efficacy, receptor subtype S1P5” value is listed as 66% and the 50% effective concentration (EC50) was determined as 90 nM. Also, at human S1P1 receptor, the “efficacy, receptor subtype S1P1” value came to 93% and the EC50 was found to be 150 nM. Also, at human S1P4 receptor, the “efficacy, receptor subtype S1P4” value is 109% and the EC50 was 160 nM.

Regarding `COc1ccc(Nc2c(C)cc(C)cc2C)c(C(N)=O)c1` [Example 36, 5-Methoxy-2-(2,4,6-trimethyl-phenylamino)-benzamide], on human S1P5 receptor, the “efficacy, receptor subtype S1P5” value came to 64% and the concentration for a half-maximal effect (EC50) was 80 nM. In addition, at human S1P1 receptor, the “efficacy, receptor subtype S1P1” value was found to be 87% and the EC50 was 305 nM. For the same compound, at human S1P4 receptor, the “efficacy, receptor subtype S1P4” value amounted to 126% and the 50% effective concentration (EC50) was 210 nM.

Take `CCCn1nccc1-c1ccc(Nc2c(C)cc(C)cc2C)c(C(N)=O)c1` [Example 27, 5-(2-Propyl-2H-pyrazol-3-yl)-2-(2,4,6-trimethyl-phenylamino)-benzamide]: on human S1P5 receptor, the “efficacy, receptor subtype S1P5” value amounted to 93% and the EC50 was 25 nM. Further, at human S1P1 receptor, the “efficacy, receptor subtype S1P1” value is 85% and the EC50 stood at 495 nM. On human S1P4 receptor, the “efficacy, receptor subtype S1P4” value is given as 130% and the concentration giving a half-maximal response (EC50) is 106 nM.
